{"source": "patent US11116757B2", "about": "(priority 2015, dated 2021)", "data": [{"molecular_target": "DCN1-UBC12 interaction (Homo sapiens (Human), UniProt Q96GG9)", "sequence (Q96GG9 60-248 limits assumed)": "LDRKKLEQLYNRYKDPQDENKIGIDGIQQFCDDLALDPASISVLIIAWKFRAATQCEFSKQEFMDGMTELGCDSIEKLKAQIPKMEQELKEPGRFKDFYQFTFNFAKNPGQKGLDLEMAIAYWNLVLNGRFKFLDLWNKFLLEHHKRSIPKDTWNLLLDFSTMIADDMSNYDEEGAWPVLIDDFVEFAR", "assay": "biochemical", "type": "binding", "conditions": "Table 4, commercial compounds; read-out: TR-FRET IC50", "units": {"IC50": "µM"}, "values": [{"molecule": "Cc1ccccc1/C=C/C(=O)N1CCC(C(=O)Nc2ccc3c(c2)OCO3)CC1", "note": "[C61]", "IC50": "> 67.6"}]}, {"molecular_target": "DCN1-UBC12 interaction (Homo sapiens (Human), UniProt Q96GG9)", "assay": "biochemical", "type": "binding", "conditions": "Table 6, commercial compounds; read-out: TR-FRET IC50", "units": {"IC50": "µM"}, "values": [{"molecule": "CCN1CCN(C(=O)c2cnn(-c3ncc(C)c(-c4cccs4)n3)c2C2CC2)CC1", "note": "[E44]", "IC50": "> 67.6"}, {"molecule": "Cc1c(C(=O)N(C)CC(C)C)cnn1-c1nccc(-c2cccs2)n1", "note": "[E6]", "IC50": 18.8}, {"molecule": "C=CCN(CC=C)C(=O)c1cnn(-c2nccc(-c3cccs3)n2)c1COC", "note": "[E39]", "IC50": "> 67.6"}, {"molecule": "COCCN1CCN(C(=O)c2cnn(-c3nccc(-c4cc(C)sc4C)n3)c2COC)CC1", "note": "[E8]", "IC50": 22.8}, {"molecule": "CCN(CCN(C)C)C(=O)c1cnn(-c2ncc(C)c(-c3cccs3)n2)c1C1CC1", "note": "[E53]", "IC50": "> 67.6"}, {"molecule": "CCN(CC)CCNC(=O)c1cnn(-c2nccc(-c3cccs3)n2)c1C1CC1", "note": "[E36]", "IC50": "> 67.6"}, {"molecule": "CSCCCNC(=O)c1cnn(-c2nccc(-c3cccs3)n2)c1C", "note": "[E51]", "IC50": "> 67.6"}, {"molecule": "CCCN1CCN(C(=O)c2cnn(-c3nccc(-c4cccs4)n3)c2COC)CC1", "note": "[E27]", "IC50": "> 16.7"}, {"molecule": "CCCCN(C)C(=O)c1cnn(-c2ncc(C)c(-c3cccs3)n2)c1C", "note": "[E42]", "IC50": "> 67.6"}, {"molecule": "Cc1c(C(=O)NCC(C)(C)CN(C)C)cnn1-c1nccc(-c2cccs2)n1", "note": "[E47]", "IC50": "> 67.6"}, {"molecule": "CCN(CC)C(=O)c1cnn(-c2ncc(C)c(-c3cccs3)n2)c1C1CC1", "note": "[E26]", "IC50": 65.2}]}, {"molecular_target": "DCN1-UBC12 interaction (Homo sapiens (Human), UniProt Q96GG9)", "assay": "biochemical", "type": "binding", "conditions": "Table 7, commercial compounds; read-out: TR-FRET IC50", "units": {"IC50": "µM"}, "values": [{"molecule": "CSc1ccc(C2c3c(C)nn(C)c3NC(=O)C2NC(=O)c2cccc(C)c2)cc1F", "note": "(centres unmarked) [F7]", "IC50": 41.5}, {"molecule": "Cc1nn(C)c2c1C(c1ccc(Br)cc1)C(NC(=O)c1ccc(Cl)cc1)C(=O)N2", "note": "(centres unmarked) [F12]", "IC50": "> 67.6"}, {"molecule": "Cc1cccc(C(=O)NC2C(=O)Nc3c(c(C)nn3C)C2c2cccc(F)c2)c1", "note": "(centres unmarked) [F15]", "IC50": "> 67.6"}]}, {"molecular_target": "DCN1-UBC12 interaction (Homo sapiens (Human), UniProt Q96GG9)", "assay": "biochemical", "type": "binding", "conditions": "read-out: TR-FRET IC50", "units": {"IC50": "µM"}, "values": [{"molecule": "Cc1cccc(CN(C(=O)Nc2cccc(C(F)(F)F)c2)C2CCN(Cc3ccccc3)CC2)n1", "note": "[B5]", "IC50": 5.64}, {"molecule": "O=C(Nc1ccc(F)c(Cl)c1)N(Cc1ccc2c(c1)OCO2)C1CCN(Cc2ccccc2)CC1", "note": "[B16]", "IC50": 50.7}, {"molecule": "CCCCN1CCC(N(Cc2ccccc2)C(=O)Nc2cccc(F)c2)CC1", "note": "[A136]", "IC50": 3.57}, {"molecule": "CCCC(C)N1CCC(N(Cc2ccccc2)C(=O)Nc2ccc(CC)cc2)CC1", "note": "(centres unmarked) [A56]", "IC50": 0.315}, {"molecule": "Cc1cc(NC(=O)NC2CCN(Cc3ccccc3)CC2)c(C(F)(F)F)o1", "note": "[B119]", "IC50": "> 79"}, {"molecule": "O=C(Nc1cccc(Cl)c1)NC1CCN(Cc2ccccc2)CC1", "note": "[B110]", "IC50": "> 73.1"}, {"molecule": "CCCCN1CCC(N(Cc2ccccc2)C(=O)Nc2cccc(C#N)c2)CC1", "note": "[A242]", "IC50": "> 52.5"}, {"molecule": "O=C(Nc1ccc(CN2CCOCC2)cc1)Nc1cccc(C(F)(F)F)c1", "note": "[B108]", "IC50": "> 72.8"}, {"molecule": "CCCCN1CCC(N(Cc2ccccc2)C(=O)Nc2cccc(Cl)c2)CC1", "note": "[A60]", "IC50": 0.357}, {"molecule": "CCCC(C)N1CCC(N(Cc2ccccc2)C(=O)Nc2cccc3cccnc23)CC1", "note": "(centres unmarked) [A139]", "IC50": 4.13}, {"molecule": "CC(C)C(C)N1CCC(N(Cc2ccccc2)C(=O)Nc2cc(F)cc(C(F)(F)F)c2)CC1", "note": "(centres unmarked) [A122]", "IC50": 1.12}, {"molecule": "O=C(Nc1cc(F)cc(C(F)(F)F)c1)N(Cc1ccccc1)C1CCN(Cc2cnccn2)CC1", "note": "[A226]", "IC50": "> 26.6"}, {"molecule": "CCCC(C)N1CCC(N(Cc2ccc3c(c2)OCO3)C(=O)Nc2ccc(F)c(C(F)(F)F)c2)CC1", "note": "(centres unmarked) [A61]", "IC50": 0.371}, {"molecule": "CC(C1CCCCC1)N1CCC(N(Cc2ccccc2)C(=O)Nc2cc(F)cc(C(F)(F)F)c2)CC1", "note": "(centres unmarked) [A125]", "IC50": 1.77}, {"molecule": "CCCN1CCC(N(Cc2ccccc2)C(=O)Nc2cccc(C(F)(F)F)c2)CC1", "note": "[A85, 1-Benzyl-1-(1-Propylpiperidin-4-yl)-3-(3-(Trifluoromethyl)Phenyl)Urea]", "IC50": 0.98}, {"molecule": "CCCC(C)N1CCC(N(Cc2ccccc2)C(=O)Nc2ccc(F)c(Cl)c2)CC1", "note": "(centres unmarked) [A53]", "IC50": 0.287}, {"molecule": "CCCC(C)N1CCC(N(Cc2ccccc2)C(=O)Nc2cc(F)ccc2F)CC1", "note": "(centres unmarked) [A281]", "IC50": "> 70.6"}, {"molecule": "1-Benzyl-1-(1-Hexylpiperidin-4-yl)-3-(3-(Trifluoromethyl)Phenyl)Urea [A289]", "IC50": "> 73.2"}, {"molecule": "O=C(Nc1cc(F)cc(C(F)(F)F)c1)N(Cc1ccccc1)C1CCN(Cc2ccccc2OCc2ccccc2)CC1", "note": "[A214]", "IC50": "> 22.9"}, {"molecule": "CCCC(C)N1CCC(N(Cc2ccccc2)C(=O)Nc2cccc(C)c2)CC1", "note": "(centres unmarked) [A82]", "IC50": 0.883}, {"molecule": "C=CC(=O)NCCN(C(=O)Nc1cccc(C(F)(F)F)c1)C1CCN(C(C)CCC)CC1", "note": "(centres unmarked) [A187]", "IC50": 33.8}, {"molecule": "CCCCN1CCC(N(Cc2ccccc2)C(=O)Nc2cccc(C)c2)CC1", "note": "[A95]", "IC50": 1.32}, {"molecule": "CC1CC(NC(=O)Nc2cnn(C)c2)CCN1Cc1ccccc1", "note": "(centres unmarked) [B42]", "IC50": "> 64.4"}, {"molecule": "CCCCN1CCC(N(Cc2ccccc2)C(=O)Nc2ccc(C)s2)CC1", "note": "[A182]", "IC50": 21.1}, {"molecule": "CCN1CCC(N(Cc2ccco2)C(=O)Nc2ccc(OC)c(OC)c2)CC1", "note": "[B77]", "IC50": "> 67.6"}, {"molecule": "CCCC(C)N1CCC(N(Cc2ccccc2)C(=O)Nc2ccc(O)c(Cl)c2)CC1", "note": "(centres unmarked) [A300]", "IC50": "> 85.8"}, {"molecule": "O=C(Nc1cccc(C(F)(F)F)c1)N(Cc1ccccc1)C1CCNCC1", "note": "[A261, 1-Benzyl-1-(Piperidin-4-yl)-3-(3-(Trifluoromethyl)Phenyl)Urea]", "IC50": "> 63.3"}, {"molecule": "CCCC(C)N1CCC(N(Cc2ccccc2)C(=O)Nc2c(F)cc(F)cc2F)CC1", "note": "(centres unmarked) [A272]", "IC50": "> 67.5"}, {"molecule": "CCCC(C)N1CCC(N(Cc2ccccc2)C(=O)Nc2ccc(OC)c(Cl)c2)CC1", "note": "(centres unmarked) [A138]", "IC50": 4.05}, {"molecule": "CCCN1CCC(N(Cc2cc(F)cc(C(F)(F)F)c2)C(=O)Nc2cccc(C(F)(F)F)c2)CC1", "note": "[A68, 1-(3-Fluoro-5-(Trifluoromethyl)Benzyl)-1-(1-Propylpiperidin-4-yl)-3-(3-(Trifluoromethyl)Phenyl)Urea]", "IC50": 0.488}, {"molecule": "O=C(Nc1cc(F)cc(C(F)(F)F)c1)N(Cc1ccccc1)C1CCN(Cc2cc(F)c(F)c(F)c2)CC1", "note": "[A206]", "IC50": "> 20.9"}, {"molecule": "CCCC(C)N1CCC(N(Cc2ccccc2)C(=O)Nc2ccc(SC(F)(F)F)cc2)CC1", "note": "(centres unmarked) [A14]", "IC50": 0.0853}, {"molecule": "O=C(Nc1cc(F)cc(C(F)(F)F)c1)N(Cc1ccccc1)C1CCN(Cc2cncnc2)CC1", "note": "[A210]", "IC50": "> 21.7"}, {"molecule": "CC(c1ccc(Cl)cc1)N1CCC(N(Cc2ccccc2)C(=O)Nc2cc(F)cc(C(F)(F)F)c2)CC1", "note": "(centres unmarked) [A216]", "IC50": "> 23.8"}, {"molecule": "CCCC(C)N1CCC(N(Cc2ccccc2)C(=O)Nc2ccc(C(N)=O)cc2)CC1", "note": "(centres unmarked) [A258]", "IC50": "> 62.2"}, {"molecule": "CCCN1CCC(N(Cc2ccco2)C(=O)Nc2cccc(C(F)(F)F)c2)CC1", "note": "[A77, 1-(Furan-2-Ylmethyl)-1-(1-Propylpiperidin-4-yl)-3-(3-(Trifluoromethyl)Phenyl)Urea]", "IC50": 0.798}, {"molecule": "Cc1ccc(C(=O)N2CCC(c3nc4ccccc4s3)CC2)cc1C", "note": "[D17]", "IC50": "> 53.9"}, {"molecule": "CCCCN1CCC(N(Cc2ccccc2)C(=O)Nc2cccc(CC)c2)CC1", "note": "[A63]", "IC50": 0.413}, {"molecule": "O=C(Nc1ccncc1[NH2+][O-])NC1CCN(Cc2ccccc2)CC1", "note": "[B120]", "IC50": "> 79.1"}, {"molecule": "Cc1cccc(C(=O)N2CCC(c3nc4ccccc4s3)CC2)c1", "note": "[D4]", "IC50": 18}, {"molecule": "CCCC(C)N1CCC(N(Cc2ccccc2)C(=O)Nc2ccc(C)c([N+](=O)[O-])c2)CC1", "note": "(centres unmarked) [A36]", "IC50": 0.206}, {"molecule": "CCCC(C)N1CCC(N(Cc2ccccc2)C(=O)Nc2cc(Cl)c(O)c(Cl)c2)CC1", "note": "(centres unmarked) [A260]", "IC50": "> 62.5"}, {"molecule": "CCCC(C)N1CCC(N(Cc2ccccc2)C(=O)Nc2ccc(C)nc2Br)CC1", "note": "(centres unmarked) [A240]", "IC50": "> 51.7"}, {"molecule": "1-(1-((1H-Pyrazol-3-yl)Methyl)Piperidin-4-yl)-1-Benzyl-3-(3-(Trifluoromethyl)Phenyl)Urea [A180]", "IC50": 19.8}, {"molecule": "C=CS(=O)(=O)Nc1cccc(CN(C(=O)Nc2cccc(C(F)(F)F)c2)C2CCN(C(C)CCC)CC2)c1", "note": "(centres unmarked) [A27]", "IC50": 0.165}, {"molecule": "CCOC(=O)Cc1ccc(NC(=O)N(Cc2ccco2)C2CCN(C(C)=O)CC2)cc1", "note": "[B75]", "IC50": "> 67.6"}, {"molecule": "CCCCN1CCC(N(Cc2ccccc2)C(=O)Nc2cnn(C)c2)CC1", "note": "[A284]", "IC50": "> 72.3"}]}]}
